Each structure is given as a SMILES string. pIC50: −log10 of the molar value. Starred links: 1 amine or outer side, 2 acyl side, 3 side chain; linkers in the order of their positions; H or OH if unused. Positions of bridges follow the written chain, without caps; N, C: chain ends. Non-standard residues stand in square brackets, D forms with d. Residues, ends and D or L forms follow the SMILES beside them. X6 = C[C@H](CCC(=O)O)[C@H]1CC[C@H]2[C@@H]3C(=O)C[C@@H]4CC(NCC[C@H](N[*:1])C(=O)[*:2])CC[C@]4(C)[C@H]3CC(=O)[C@]12C; X3 = C[C@H](CCC(=O)O)[C@H]1CC[C@H]2[C@@H]3C(=O)C[C@@H]4CC(NC[C@H](N[*:1])C(=O)[*:2])CC[C@]4(C)[C@H]3CC(=O)[C@]12C; X26 = C[C@H](CCC(=O)O)[C@H]1CC[C@H]2[C@@H]3C(=O)C[C@@H]4CC(NCC[C@H](N[*:1])C(=O)[*:2])CC[C@]4(C)[C@H]3CC[C@]12C; X20 = CC(C)CCC[C@@H](C)[C@H]1CC[C@H]2[C@@H]3CC[C@H]4C[C@H](NC[C@H](N[*:1])C(=O)[*:2])CC[C@]4(C)[C@H]3CC[C@]12C; X25 = C[C@H](CCC(=O)O)[C@H]1CC[C@H]2[C@@H]3C(=O)C[C@@H]4CC(NC[C@H](N[*:1])C(=O)[*:2])CC[C@]4(C)[C@H]3CC[C@]12C; Trp(1-CH2COOH) = N[C@@H](Cc1cn(CC(=O)O)c2ccccc12)C(=O)O; X28 = O=C(C[C@@H](Cc1ccc(O)cc1)C(=O)[*:1])C[*:2]; Hyp = O=C(O)[C@@H]1C[C@@H](O)CN1; NMeNle = CCCC[C@H](NC)C(=O)O; NMeA = CN[C@@H](C)C(=O)O; Dab = NCC[C@H](N)C(=O)O

The target in one experiment is T1, PD-1/PD-L1 (Homo sapiens, UniProt Q9NZQ7).
T1 construct: TVMV protease site (C); made in house; host or cells: HEK293T cells
T1 sequence (Q9NZQ7 18-239): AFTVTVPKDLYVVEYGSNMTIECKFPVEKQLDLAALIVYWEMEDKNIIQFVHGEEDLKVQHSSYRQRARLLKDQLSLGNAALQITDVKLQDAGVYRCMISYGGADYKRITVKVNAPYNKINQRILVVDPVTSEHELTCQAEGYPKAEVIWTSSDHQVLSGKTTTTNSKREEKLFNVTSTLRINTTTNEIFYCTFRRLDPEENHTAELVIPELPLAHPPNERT
The experiment can be described thus: PD-1/PD-L1 Homogenous Time-Resolved Fluorescence (HTRF) binding assay. The conditions noted are these: HTRF IC50, PD-L1-His 10 nM, PD-1-Ig 20 nM. In short, it runs like this:
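Inhibitors pre-incubated 15 min with PD-L1-His (10 nM final) in dPBS, 0.1% BSA, 0.05% Tween-20, then 15 min with PD-1-Ig (20 nM final). Eu-cryptate anti-Ig (1 nM) and APC anti-His (20 nM) added, 30 min equilibration; HTRF 665/620 nm ratio. Human ECD proteins from HEK293T.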
On to `CCCC[C@H]1C(=O)N(C)[C@@H](CCCC)C(=O)N[C@@H](CC(C)C)C(=O)N[C@H](C(=O)NCC(N)=O)CSCC(=O)N[C@@H](Cc2ccc(O)cc2)C(=O)N(C)[C@@H](C)C(=O)N[C@@H](CC(N)=O)C(=O)N2CCC[C@H]2C(=O)N[C@@H](CN[C@@H]2CC[C@@]3(C)[C@@H](CC[C@@H]4[C@@H]3CC[C@]3(C)[C@@H]([C@H](C)CCCC(C)C)CC[C@@H]43)C2)C(=O)N[C@@H](CC(C)C)C(=O)N2C[C@H](O)C[C@H]2C(=O)N[C@@H](Cc2c[nH]c3ccccc23)C(=O)N[C@@H](CCN)C(=O)N[C@@H](Cc2cn(CC(=O)O)c3ccccc23)C(=O)N1C` [Example 3009] ({CH2CO}-Y[NMeA]NP[X20]L[Hyp]W[Dab][Trp(1-CH2COOH)][NMeNle][NMeNle]LCG-NH2; thioether N-14), for which the pIC50 is 6.89.

The experiment is the same for the next values; noted with them: PD-L1-His 10 nM, PD-1-Ig 20 nM; read-out: HTRF IC50.
In the case of `CCCC[C@H]1C(=O)N(C)[C@@H](CCCC)C(=O)N[C@@H](CC(C)C)C(=O)N[C@H](C(=O)NCC(N)=O)CSCC(=O)N[C@@H](Cc2ccc(O)cc2)C(=O)N(C)[C@@H](C)C(=O)N[C@@H](CC(N)=O)C(=O)N2CCC[C@H]2C(=O)N[C@@H](CNC2CC[C@@]3(C)[C@H](CC(=O)[C@@H]4[C@@H]3CC(=O)[C@]3(C)[C@@H]([C@H](C)CCC(=O)O)CC[C@@H]43)C2)C(=O)N[C@@H](CC(C)C)C(=O)N2C[C@H](O)C[C@H]2C(=O)N[C@@H](Cc2c[nH]c3ccccc23)C(=O)N[C@@H](CCNC2CC[C@@]3(C)[C@H](CC(=O)[C@@H]4[C@@H]3CC(=O)[C@]3(C)[C@@H]([C@H](C)CCC(=O)O)CC[C@@H]43)C2)C(=O)N[C@@H](Cc2cn(CC(=O)O)c3ccccc23)C(=O)N1C` (some centres unmarked) [Example 3003] ({CH2CO}-Y[NMeA]NP[X3]L[Hyp]W[X6][Trp(1-CH2COOH)][NMeNle][NMeNle]LCG-NH2; thioether N-14), the negative-log IC50 (pIC50) was 7.77.

Regarding `CCCC[C@H]1C(=O)N(C)[C@@H](CCCC)C(=O)N[C@@H](CC(C)C)C(=O)N[C@H](C(=O)NCC(N)=O)CSCC(=O)C[C@@H](Cc2ccc(O)cc2)C(=O)N(C)[C@@H](C)C(=O)N[C@@H](CC(N)=O)C(=O)N2CCC[C@H]2C(=O)N[C@@H](CNC2CC[C@@]3(C)[C@H](CC(=O)[C@@H]4[C@@H]3CC[C@]3(C)[C@@H]([C@H](C)CCC(=O)O)CC[C@@H]43)C2)C(=O)N[C@@H](CC(C)C)C(=O)N2C[C@H](O)C[C@H]2C(=O)N[C@@H](Cc2c[nH]c3ccccc23)C(=O)N[C@@H](CCN)C(=O)N[C@@H](Cc2cn(CC(=O)O)c3ccccc23)C(=O)N1C` (some centres unmarked) [Example 3004] ([NMeA]NP[X25]L[Hyp]W[Dab][Trp(1-CH2COOH)][NMeNle][NMeNle]LCG-NH2; linker N-13 via X28), the pIC50 was 7.39.

Regarding `CCCC[C@H]1C(=O)N(C)[C@@H](CCCC)C(=O)N[C@@H](CC(C)C)C(=O)N[C@H](C(=O)NCC(N)=O)CSCC(=O)N[C@@H](Cc2ccc(O)cc2)C(=O)N(C)[C@@H](C)C(=O)N[C@@H](CC(N)=O)C(=O)N2CCC[C@H]2C(=O)N[C@@H](CNC2CC[C@@]3(C)[C@H](CC(=O)[C@@H]4[C@@H]3CC(=O)[C@]3(C)[C@@H]([C@H](C)CCC(=O)O)CC[C@@H]43)C2)C(=O)N[C@@H](CC(C)C)C(=O)N2C[C@H](O)C[C@H]2C(=O)N[C@@H](Cc2c[nH]c3ccccc23)C(=O)N[C@@H](CCN)C(=O)N[C@@H](Cc2cn(CC(=O)O)c3ccccc23)C(=O)N1C` (some centres unmarked) [Example 3005] ({CH2CO}-Y[NMeA]NP[X3]L[Hyp]W[Dab][Trp(1-CH2COOH)][NMeNle][NMeNle]LCG-NH2; thioether N-14), the negative logarithm of the IC50 (pIC50) was 7.89.

As to `CCCC[C@H]1C(=O)N(C)[C@@H](CCCC)C(=O)N[C@@H](CC(C)C)C(=O)N[C@H](C(=O)NCC(N)=O)CSCC(=O)N[C@@H](Cc2ccc(O)cc2)C(=O)N(C)[C@@H](C)C(=O)N[C@@H](CC(N)=O)C(=O)N2CCC[C@H]2C(=O)N[C@@H](CNC2CC[C@@]3(C)[C@H](CC(=O)[C@@H]4[C@@H]3CC[C@]3(C)[C@@H]([C@H](C)CCC(=O)O)CC[C@@H]43)C2)C(=O)N[C@@H](CC(C)C)C(=O)N2C[C@H](O)C[C@H]2C(=O)N[C@@H](Cc2c[nH]c3ccccc23)C(=O)N[C@@H](CCNC2CC[C@@]3(C)[C@H](CC(=O)[C@@H]4[C@@H]3CC[C@]3(C)[C@@H]([C@H](C)CCC(=O)O)CC[C@@H]43)C2)C(=O)N[C@@H](Cc2cn(CC(=O)O)c3ccccc23)C(=O)N1C` (some centres unmarked) [Example 3006] ({CH2CO}-Y[NMeA]NP[X25]L[Hyp]W[X26][Trp(1-CH2COOH)][NMeNle][NMeNle]LCG-NH2; thioether N-14), the negative-log IC50 (pIC50) was 7.96.

(Values after US20230183292A1, “IMMUNOMODULATORS” (priority 2020, published 2023).)
